Laboratory results published in ChEMBL document CHEMBL1201861, “Genomics of Drug Sensitity in Cancer screening data, Wellcome Trust Sanger Institute”.

Key:
D-542MG = assay: cells; assay type: functional, cell-based, Homo sapiens
Description: SANGER: Inhibition of human D-542MG cell growth in a cell viability assay.

EPLC-272H = assay: cells; assay type: functional, cell-based, Homo sapiens; conditions: Homo sapiens, EPLC-272H
Description: SANGER: Inhibition of human EPLC-272H cell growth in a cell viability assay.

FTC-133 = assay: cells; assay type: functional, cell-based, Homo sapiens
H4 = assay: cells; assay type: functional, cell-based, Homo sapiens
Description: SANGER: Inhibition of human H4 cell growth in a cell viability assay.

HCC1937 = assay: cells; assay type: functional, cell-based, Homo sapiens;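 note: growth inhibition measured with a cell viability read-out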
Description: SANGER: Inhibition of human HCC1937 cell growth in a cell viability assay.

HTC-C3 = assay: cells; assay type: functional, cell-based, Homo sapiens;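 note: inhibition of cell growth, read out with a cell viability assay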
Description: SANGER: Inhibition of human HTC-C3 cell growth in a cell viability assay.

HuO-3N1 = assay: cells; assay type: functional, cell-based, Homo sapiens;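 note: cell viability readout used to measure how strongly compounds suppress proliferation of human HuO-3N1 cells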
Description: SANGER: Inhibition of human HuO-3N1 cell growth in a cell viability assay.

KP-4 = assay: cells; assay type: functional, cell-based, Homo sapiens;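 note: human KP-4 cells, with growth inhibition read out through a cell viability assay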
Description: SANGER: Inhibition of human KP-4 cell growth in a cell viability assay.

KU-19-19 = assay: cells; assay type: functional, cell-based, Homo sapiens
Description: SANGER: Inhibition of human KU-19-19 cell growth in a cell viability assay.

KYSE-270 = assay: cells; assay type: functional, cell-based, Homo sapiens;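 note: cell growth inhibition measured with a viability assay in the human KYSE-270 line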
Description: SANGER: Inhibition of human KYSE-270 cell growth in a cell viability assay.

KYSE-70 cell line = assay: cells; assay type: functional, cell-based, Homo sapiens;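 note: cell viability assay read-out, with IC50 expressing suppression of KYSE-70 cell growth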
Description: SANGER: Inhibition of human KYSE-70 cell growth in a cell viability assay.

MG-63 = assay: cells; assay type: functional, cell-based, Homo sapiens;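 note: growth inhibition of human MG-63 cells, read out with a cell viability assay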
Description: SANGER: Inhibition of human MG-63 cell growth in a cell viability assay.

NCI-H1437 = assay: cells; assay type: functional, cell-based, Homo sapiens;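 note: growth inhibition of human NCI-H1437 cells, read out by a cell viability assay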
Description: SANGER: Inhibition of human NCI-H1437 cell growth in a cell viability assay.

NCI-H1993 = assay: cells; assay type: functional, cell-based, Homo sapiens;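 note: growth inhibition of the cancer cell line, assessed with a cell viability assay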
Description: SANGER: Inhibition of human NCI-H1993 cell growth in a cell viability assay.

NCI-H2291 = assay: cells; assay type: functional, cell-based, Homo sapiens; conditions: Homo sapiens, NCI-H2291
Description: SANGER: Inhibition of human NCI-H2291 cell growth in a cell viability assay.

NY = assay: cells; assay type: functional, cell-based, Homo sapiens
Description: SANGER: Inhibition of human NY cell growth in a cell viability assay.

OAW-42 = assay: cells; assay type: functional, cell-based, Homo sapiens;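 note: growth inhibition of OAW-42 cells, read out with a cell viability assay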
Description: SANGER: Inhibition of human OAW-42 cell growth in a cell viability assay.

OE33 = assay: cells; assay type: functional, cell-based, Homo sapiens;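 note: growth inhibition of human OE33 cells, measured by a cell viability assay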
Description: SANGER: Inhibition of human OE33 cell growth in a cell viability assay.

PA-1 = assay: cells; assay type: functional, cell-based, Homo sapiens;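 note: IC50 for suppression of PA-1 cell proliferation, determined with a cell viability read-out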
Description: SANGER: Inhibition of human PA-1 cell growth in a cell viability assay.

RMG-I = assay: cells; assay type: functional, cell-based, Homo sapiens;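 note: growth inhibition of human RMG-I cells, read out with a cell viability assay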
Description: SANGER: Inhibition of human RMG-I cell growth in a cell viability assay.

RO82-W-1 = assay: cells; assay type: functional, cell-based, Homo sapiens;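 note: growth inhibition of human RO82-W-1 cells, measured with a cell viability assay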
Description: SANGER: Inhibition of human RO82-W-1 cell growth in a cell viability assay.

RPMI-2650 = assay: cells; assay type: functional, cell-based, Homo sapiens
Description: SANGER: Inhibition of human RPMI-2650 cell growth in a cell viability assay.

RT-112 = assay: cells; assay type: functional, cell-based, Homo sapiens
Description: SANGER: Inhibition of human RT-112 cell growth in a cell viability assay.

SBC-5 = assay: cells; assay type: functional, cell-based, Homo sapiens;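 note: cell viability assay read-out, IC50 is the concentration that inhibits growth of the cells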
Description: SANGER: Inhibition of human SBC-5 cell growth in a cell viability assay.

SKG-IIIa = assay: cells; assay type: functional, cell-based, Homo sapiens;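 note: cell growth inhibition, read out with a cell viability assay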
Description: SANGER: Inhibition of human SKG-IIIa cell growth in a cell viability assay.

SW780 = assay: cells; assay type: functional, cell-based, Homo sapiens;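 note: growth inhibition of the cells, read out with a cell viability assay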
Description: SANGER: Inhibition of human SW780 cell growth in a cell viability assay.

SiHa = assay: cells; assay type: functional, cell-based, Homo sapiens;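 note: Viability-based readout of growth inhibition in SiHa cells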
Description: SANGER: Inhibition of human SiHa cell growth in a cell viability assay.

TCC-SUP = assay: cells; assay type: functional, cell-based, Homo sapiens;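 note: growth inhibition of TCC-SUP cells, read out with a cell viability assay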
Description: SANGER: Inhibition of human TCCSUP cell growth in a cell viability assay.

A 172 = assay: cells; assay type: functional, cell-based, Homo sapiens;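 note: growth inhibition of A172 cells, measured with a cell viability readout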
Description: SANGER: Inhibition of human A172 cell growth in a cell viability assay.

A-427 = assay: cells; assay type: functional, cell-based, Homo sapiens;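 note: growth inhibition of human A-427 cells, read out by a cell viability assay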
Description: SANGER: Inhibition of human A427 cell growth in a cell viability assay.

A673 = assay: cells; assay type: functional, cell-based, Homo sapiens;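 note: growth inhibition of human A673 cells, read out through a cell viability assay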
Description: SANGER: Inhibition of human A673 cell growth in a cell viability assay.

BCPAP = assay: cells; assay type: functional, cell-based, Homo sapiens;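 note: growth inhibition of BCPAP cells, read out in a cell viability assay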
Description: SANGER: Inhibition of human BCPAP cell growth in a cell viability assay.

BT-20 = assay: cells; assay type: functional, cell-based, Homo sapiens;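 note: cell viability assay measuring suppression of growth in human BT-20 cells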
Description: SANGER: Inhibition of human BT-20 cell growth in a cell viability assay.

CAL-120 = assay: cells; assay type: functional, cell-based, Homo sapiens;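 note: cell growth inhibition, read out as cell viability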
Description: SANGER: Inhibition of human CAL-120 cell growth in a cell viability assay.

YKG-1 = assay: cells; assay type: functional, cell-based, Homo sapiens;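 note: cell growth inhibition, read out with a viability assay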
Description: SANGER: Inhibition of human YKG-1 cell growth in a cell viability assay.

ME-180 = assay: cells; assay type: functional, cell-based, Homo sapiens;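 note: cell viability assay measuring growth inhibition of ME-180 cells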
Description: SANGER: Inhibition of human ME-180 cell growth in a cell viability assay.

VM-CUB-1 = assay: cells; assay type: functional, cell-based, Homo sapiens;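 note: cell viability assay measuring growth inhibition of the human VM-CUB-1 cell line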
Description: SANGER: Inhibition of human VM-CUB-1 cell growth in a cell viability assay.

DG-75 = assay: cells; assay type: functional, cell-based, Homo sapiens; conditions: dg-75;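 note: growth inhibition of DG-75 cells, read out with a cell viability assay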
Description: SANGER: Inhibition of human DG-75 cell growth in a cell viability assay.

Daudi = assay: cells; assay type: functional, cell-based, Homo sapiens; conditions: daudi;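 note: growth inhibition of Daudi cells, read out by a viability assay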
Description: SANGER: Inhibition of human Daudi cell growth in a cell viability assay.

GDM-1 = assay: cells; assay type: functional, cell-based, Homo sapiens; conditions: gdm-1;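 note: cell viability readout used to measure growth inhibition of human GDM-1 cells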
Description: SANGER: Inhibition of human GDM-1 cell growth in a cell viability assay.

IST-SL2 = assay: cells; assay type: functional, cell-based, Homo sapiens; conditions: ist-sl2;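 note: growth inhibition of human IST-SL2 cells, read out by a cell viability assay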
Description: SANGER: Inhibition of human IST-SL2 cell growth in a cell viability assay.

MC-CAR = assay: cells; assay type: functional, cell-based, Homo sapiens; conditions: mc-car;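 note: growth inhibition of the human MC-CAR cell line, read out by a cell viability assay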
Description: SANGER: Inhibition of human MC-CAR cell growth in a cell viability assay.

NCI-H719 = assay: cells; assay type: functional, cell-based, Homo sapiens; conditions: nci-h719;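 note: growth inhibition of the cultured cell line, read out with a viability assay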
Description: SANGER: Inhibition of human NCI-H719 cell growth in a cell viability assay.

NCI-H748 = assay: cells; assay type: functional, cell-based, Homo sapiens; conditions: nci-h748;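 note: growth inhibition of NCI-H748 cells, measured by a cell viability assay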
Description: SANGER: Inhibition of human NCI-H748 cell growth in a cell viability assay.

SCC-3 = assay: cells; assay type: functional, cell-based, Homo sapiens; conditions: scc-3;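 note: cell viability assay measuring inhibition of SCC-3 cell growth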
Description: SANGER: Inhibition of human SCC-3 cell growth in a cell viability assay.

BL-41 = assay: cells; assay type: functional, cell-based, Homo sapiens; conditions: bl-41;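 note: growth inhibition of human BL-41 cells, read out with a cell viability assay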
Description: SANGER: Inhibition of human BL-41 cell growth in a cell viability assay.

BL-70 = assay: SANGER: Inhibition of human BL-70 cell growth in a cell viability assay.; assay type: functional, cell-based; conditions: bl-70
TUR = assay: cells; assay type: functional, cell-based, Homo sapiens; conditions: tur;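 note: growth inhibition of human TUR cells, read out with a cell viability assay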
Description: SANGER: Inhibition of human TUR cell growth in a cell viability assay.

UACC-812 = assay: cells; assay type: functional, cell-based, Homo sapiens; conditions: uacc-812
Description: SANGER: Inhibition of human UACC-812 cell growth in a cell viability assay.

Molecule: CC(C)c1ccccc1Cc1cc(C(=O)Nc2ccc(S(=O)(=O)c3ccccc3C(C)(C)C)cc2)c(O)c(O)c1O
- IC50 (D-542MG; Homo sapiens, D-542MG): 0.462 µM
- IC50 (EPLC-272H): 0.703 µM
- IC50 (FTC-133; Homo sapiens, FTC-133): 0.607 µM
- IC50 (H4; Homo sapiens, H4): 0.408 µM
- IC50 (HCC1937; Homo sapiens, HCC1937): 1.64 µM
- IC50 (HTC-C3; Homo sapiens, HTC-C3): 1.58 µM
- IC50 (HuO-3N1; Homo sapiens, HuO-3N1): 2.03 µM
- IC50 (KP-4; Homo sapiens, KP-4): 0.455 µM
- IC50 (KU-19-19; Homo sapiens, KU-19-19): 0.44 µM
- IC50 (KYSE-270; Homo sapiens, KYSE-270): 1.08 µM
- IC50 (KYSE-70 cell line; Homo sapiens, KYSE-70): 5.31 µM
- IC50 (MG-63; Homo sapiens, MG-63): 0.112 µM
- IC50 (NCI-H1437; Homo sapiens, NCI-H1437): 0.538 µM
- IC50 (NCI-H1993; Homo sapiens, NCI-H1993): 1.04 µM
- IC50 (NCI-H2291): 21 µM
- IC50 (NY; Homo sapiens, NY): 0.178 µM
- IC50 (OAW-42; Homo sapiens, OAW-42): 0.492 µM
- IC50 (OE33; Homo sapiens, OE33): 0.695 µM
- IC50 (PA-1; Homo sapiens, PA-1): 0.134 µM
- IC50 (RMG-I; Homo sapiens, RMG-I): 0.207 µM
- IC50 (RO82-W-1; Homo sapiens, RO82-W-1): 0.398 µM
- IC50 (RPMI-2650; Homo sapiens, RPMI-2650): 0.238 µM
- IC50 (RT-112; Homo sapiens, RT-112): 0.535 µM
- IC50 (SBC-5; Homo sapiens, SBC-5): 0.147 µM
- IC50 (SKG-IIIa; Homo sapiens, SKG-IIIa): 0.576 µM
- IC50 (SW780; Homo sapiens, SW780): 5.8 µM
- IC50 (SiHa; Homo sapiens, SiHa): 0.261 µM
- IC50 (TCC-SUP; Homo sapiens, TCC-SUP): 0.361 µM
- IC50 (A 172; Homo sapiens, A 172): 0.794 µM
- IC50 (A-427; Homo sapiens, A-427): 0.0447 µM
- IC50 (A673; Homo sapiens, A673): 0.0538 µM
- IC50 (BCPAP; Homo sapiens, BCPAP): 0.242 µM
- IC50 (BT-20; Homo sapiens, BT-20): 0.656 µM
- IC50 (CAL-120; Homo sapiens, CAL-120): 0.479 µM
- IC50 (YKG-1; Homo sapiens, YKG-1): 0.0298 µM

Molecule: CN(C)C(=N)NC(=N)N [METFORMIN]
- IC50 (EPLC-272H): > 20000 µM
- IC50 (FTC-133; Homo sapiens, FTC-133): > 20000 µM
- IC50 (H4; Homo sapiens, H4): > 20000 µM
- IC50 (HCC1937; Homo sapiens, HCC1937): > 20000 µM
- IC50 (HTC-C3; Homo sapiens, HTC-C3): > 20000 µM
- IC50 (HuO-3N1; Homo sapiens, HuO-3N1): 7800 µM
- IC50 (KP-4; Homo sapiens, KP-4): 7050 µM
- IC50 (KU-19-19; Homo sapiens, KU-19-19): 9610 µM
- IC50 (KYSE-270; Homo sapiens, KYSE-270): > 20000 µM
- IC50 (ME-180; Homo sapiens, ME-180): > 20000 µM
- IC50 (MG-63; Homo sapiens, MG-63): 14000 µM
- IC50 (NCI-H1437; Homo sapiens, NCI-H1437): > 20000 µM
- IC50 (NCI-H2291): > 20000 µM
- IC50 (NY; Homo sapiens, NY): 14100 µM
- IC50 (OAW-42; Homo sapiens, OAW-42): 18100 µM
- IC50 (PA-1; Homo sapiens, PA-1): 14200 µM
- IC50 (RMG-I; Homo sapiens, RMG-I): > 20000 µM
- IC50 (RO82-W-1; Homo sapiens, RO82-W-1): > 20000 µM
- IC50 (RPMI-2650; Homo sapiens, RPMI-2650): > 20000 µM
- IC50 (RT-112; Homo sapiens, RT-112): > 20000 µM
- IC50 (SBC-5; Homo sapiens, SBC-5): 17100 µM
- IC50 (SKG-IIIa; Homo sapiens, SKG-IIIa): > 20000 µM
- IC50 (SW780; Homo sapiens, SW780): 12400 µM
- IC50 (SiHa; Homo sapiens, SiHa): > 20000 µM
- IC50 (TCC-SUP; Homo sapiens, TCC-SUP): 4010 µM
- IC50 (A 172; Homo sapiens, A 172): 17500 µM
- IC50 (A-427; Homo sapiens, A-427): 7170 µM
- IC50 (A673; Homo sapiens, A673): 19200 µM
- IC50 (BCPAP; Homo sapiens, BCPAP): > 20000 µM
- IC50 (BT-20; Homo sapiens, BT-20): 15300 µM

Molecule: Cn1cnc2c(F)c(Nc3ccc(Br)cc3Cl)c(C(=O)NOCCO)cc21 [SELUMETINIB]
- IC50 (EPLC-272H): > 4 µM
- IC50 (FTC-133; Homo sapiens, FTC-133): > 4 µM
- IC50 (H4; Homo sapiens, H4): > 4 µM
- IC50 (HCC1937; Homo sapiens, HCC1937): > 4 µM
- IC50 (HTC-C3; Homo sapiens, HTC-C3): 0.215 µM
- IC50 (HuO-3N1; Homo sapiens, HuO-3N1): > 4 µM
- IC50 (KU-19-19; Homo sapiens, KU-19-19): 3.42 µM
- IC50 (KYSE-270; Homo sapiens, KYSE-270): > 4 µM
- IC50 (KYSE-70 cell line; Homo sapiens, KYSE-70): > 4 µM
- IC50 (ME-180; Homo sapiens, ME-180): > 4 µM
- IC50 (MG-63; Homo sapiens, MG-63): > 4 µM
- IC50 (NCI-H1437; Homo sapiens, NCI-H1437): 0.353 µM
- IC50 (NCI-H1993; Homo sapiens, NCI-H1993): > 4 µM
- IC50 (NCI-H2291): 0.762 µM
- IC50 (NY; Homo sapiens, NY): > 4 µM
- IC50 (OAW-42; Homo sapiens, OAW-42): > 4 µM
- IC50 (OE33; Homo sapiens, OE33): > 4 µM
- IC50 (PA-1; Homo sapiens, PA-1): > 4 µM
- IC50 (RMG-I; Homo sapiens, RMG-I): > 4 µM
- IC50 (RO82-W-1; Homo sapiens, RO82-W-1): > 4 µM
- IC50 (RPMI-2650; Homo sapiens, RPMI-2650): > 4 µM
- IC50 (RT-112; Homo sapiens, RT-112): 2.26 µM
- IC50 (SBC-5; Homo sapiens, SBC-5): > 4 µM
- IC50 (SKG-IIIa; Homo sapiens, SKG-IIIa): > 4 µM
- IC50 (SW780; Homo sapiens, SW780): 0.666 µM
- IC50 (SiHa; Homo sapiens, SiHa): > 4 µM
- IC50 (TCC-SUP; Homo sapiens, TCC-SUP): > 4 µM
- IC50 (A-427; Homo sapiens, A-427): > 4 µM
- IC50 (A673; Homo sapiens, A673): > 4 µM
- IC50 (BCPAP; Homo sapiens, BCPAP): 2.13 µM
- IC50 (BT-20; Homo sapiens, BT-20): > 4 µM
- IC50 (CAL-120; Homo sapiens, CAL-120): > 4 µM
- IC50 (VM-CUB-1; Homo sapiens, VM-CUB-1): 3.97 µM
- IC50 (YKG-1; Homo sapiens, YKG-1): > 4 µM

Molecule: BLEOMYCIN
- IC50 (D-542MG; d-542mg): 60.3 µM
- IC50 (DG-75): 16.9 µM
- IC50 (Daudi): 1.67 µM
- IC50 (FTC-133; ftc-133): 1.29 µM
- IC50 (GDM-1): 0.228 µM
- IC50 (H4; h4): 0.321 µM
- IC50 (HCC1937; hcc1937): 0.000254 µM
- IC50 (HTC-C3; htc-c3): 77.8 µM
- IC50 (HuO-3N1; huo-3n1): 87.8 µM
- IC50 (IST-SL2): 0.000173 µM
- IC50 (KP-4; kp-4): 2.17 µM
- IC50 (KU-19-19; ku-19-19): 525 µM
- IC50 (KYSE-270; kyse-270): 0.717 µM
- IC50 (KYSE-70 cell line; kyse-70): 1.38 µM
- IC50 (MC-CAR): 1.4 µM
- IC50 (ME-180; me-180): 40.9 µM
- IC50 (MG-63; mg-63): 1.49 µM
- IC50 (NCI-H1437; nci-h1437): 0.743 µM
- IC50 (NCI-H1993; nci-h1993): 646 µM
- IC50 (NCI-H719): 293 µM
- IC50 (NCI-H748): 75.2 µM
- IC50 (NY; ny): 5.91 µM
- IC50 (OAW-42; oaw-42): 0.832 µM
- IC50 (OE33; oe33): 2.75 µM
- IC50 (PA-1; pa-1): 2.02 µM
- IC50 (RMG-I; rmg-i): 0.000132 µM
- IC50 (RO82-W-1; ro82-w-1): 339 µM
- IC50 (RPMI-2650; rpmi-2650): 0.633 µM
- IC50 (RT-112; rt-112): 2.32 µM
- IC50 (SBC-5; sbc-5): 0.624 µM
- IC50 (SCC-3): 3.21 µM
- IC50 (SKG-IIIa; skg-iiia): 136 µM
- IC50 (SW780; sw780): 8140 µM
- IC50 (SiHa; siha): 5170 µM
- IC50 (TCC-SUP; tcc-sup): 15.9 µM
- IC50 (A 172; a 172): 39.7 µM
- IC50 (A-427; a-427): 0.000118 µM
- IC50 (A673; a673): 10.5 µM
- IC50 (BCPAP; bcpap): 1.44 µM
- IC50 (BL-41): 14.2 µM
- IC50 (BL-70): 1650 µM
- IC50 (BT-20; bt-20): 2.77 µM
- IC50 (CAL-120; cal-120): 5.56 µM
- IC50 (TUR): 18.9 µM
- IC50 (UACC-812): 99.6 µM
- IC50 (VM-CUB-1; vm-cub-1): 4.92 µM
- IC50 (YKG-1; ykg-1): 3.26 µM
